# According to US20110039920A1, “INHIBITORS OF IKK-BETA SERINE-THERONINE PROTEIN KINASE” (CHROMA THERAPEUTICS LTD., priority 2008, published 2011):
# How the values were obtained:
# THP-1 TNFα release = experiment: LPS-stimulation of THP-1 cells, TNF-α by ELISA; type: cell-based; settings: Homo sapiens, inhibitor 2 hrs before LPS 1 μg/ml, 6 hrs, read-out: Inhibitor activity versus THP-1 TNFα release
# Protocol: THP-1 cells were plated in 100 μl at a density of 4×10^4 cells/well in V-bottomed 96 well tissue culture treated plates and incubated at 37° C. in 5% CO2 for 16 hrs. 2 hrs after the addition of the inhibitor in 100 μl of tissue culture media, the cells were stimulated with LPS (E coli strain 005:65, Sigma) at a final concentration of 1 μg/ml and incubated at 37° C. in 5% CO2 for 6 hrs. TNF-α levels were measured from cell-free supernatants by sandwich ELISA (R&D Systems #QTA00B)
# [1] = test system: human whole blood TNFα release; experiment: LPS-stimulation of human whole blood, TNF-α by ELISA; type: cell-based; settings: inhibitor 2 hrs before LPS 100 ng/ml, 6 hrs, read-out: Inhibitor activity versus human whole blood TNFα release
# Protocol: Whole blood was taken by venous puncture using heparinised vacutainers (Becton Dickinson) and diluted in an equal volume of RPMI1640 tissue culture media (Sigma). 100 μl was plated in V-bottomed 96 well tissue culture treated plates. 2 hrs after the addition of the inhibitor in 100 μl of RPMI1640 media, the blood was stimulated with LPS (E coli strain 005:B5, Sigma) at a final concentration of 100 ng/ml and incubated at 37° C. in 5% CO2 for 6 hrs. TNF-α levels were measured from cell-free supernatants by sandwich ELISA (R&D Systems #QTA00B)
structure (smiles),measurement,setting,value
"C[C@H](NCc1cccc(-c2cc(C(N)=O)c(NC(N)=O)s2)c1)C(=O)OC1CCCC1 [Example 11, Cyclopentyl N-{3-[4-carbamoyl-5-(carbamoylamino)-2-thienyl]benzyl}-L-alaninate]",IC50,THP-1 TNFα release,500 to 1000 nM
same,IC50,[1],500 to 1000 nM
